According to patent US10799521B2, “Use of icaritin in preparing medicament for preventing or treating hematocytopenia” (Lunan Pharmaceutical Group Corporation, priority 2013, dated 2020):
Marks after values point to notes of the source that are not given here.

How the values were obtained:
[1] = tested on: chronic ITP model rats; experiment: Thrombin time, prothrombin time and partial thromboplastin time in chronic ITP model rats; format: in vivo, Wistar rats; details: high- and medium-dose groups, P<0.05
Method: Establishment of chronic ITP model: Wistar rats were selected to establish the model by injecting rabbit anti-rat platelet serum (APS). […] 50 Rats in which the model was successfully established were selected, weighed, and randomly divided into 5 groups, i.e. the model control group, the icariin group (positive control group), and the icaritin administration groups (high-, medium- and low-dose groups), with 10 rats in each group. The groups were administered with the following therapeutic agents, respectively.

[2] = parameters: species or system Kunming mice; details: mouse, in vivo
Method: Mice ascites tumor s180 cells were conventionally incubated in 1640 culture medium, at 37° C., 5% CO2, and passaged once every two days in average. The cells in the logarithmic growth phase were prepared into a single-cell suspension having a density of 3.0×10^7 cells/ml with normal saline, which was injected into the abdominal cavities of mice under sterile conditions. Seven days after inoculation, significant swelling of the abdominal cavities of mice can be seen. As this time, the mice were executed by cervical vertebra luxation, put into a beaker containing 75% ethanol and soaked for 2-3 minutes. The sterilized mice were placed into an ultraclean bench, and the abdomens were exposed. The ascites was drawn with a sterile syringe and put into a sterile reagent bottle for further use. The above ascites was counted with trypan blue, diluted with normal saline to adjust to 2.0×10^7 cells/ml, and inoculated at the right armpit of the mice with 0.2 ml for each mouse.
The inoculated mice were randomly divided into 6 groups, with 10 animals in each group and half male and half female.
Docetaxel and icaritin were administered by tail intravenous injection with an administration volume of 10 ml/kg for each. Tegafur, Gimeracil and Oteracil Potassium Capsules was intragastrically administered with an administration volume of 40 ml/kg. Each group was administered once a day for totally 10 days. During the test, the animals were observed every day for their food and water uptake, survival conditions and behaviors, and measured for their body weights every day. After the test was ended, the mice were anaesthetized and anatomized. Blood was collected from abdominal aorta for routine blood test, and the total number of white blood cells, the total number of platelets and the total number of neutrophils were determined.

[3] = tested on: tumor-bearing mice (mice ascites tumor s180 cells); experiment: Effect on chemotherapy-induced bone marrow suppression in tumor-bearing mice (routine blood test); format: in vivo, Kunming mice; details: after 10 days once daily, docetaxel 75 mg/m^2/d iv, Tegafur/Gimeracil/Oteracil capsules 222.2 mg/m^2/d intragastric, icaritin 10 mg/kg/d iv
Method: Mice ascites tumor s180 cells were conventionally incubated in 1640 culture medium, at 37° C., 5% CO2, and passaged once every two days in average. The cells in the logarithmic growth phase were prepared into a single-cell suspension having a density of 3.0×10^7 cells/ml with normal saline, which was injected into the abdominal cavities of mice under sterile conditions. Seven days after inoculation, significant swelling of the abdominal cavities of mice can be seen. As this time, the mice were executed by cervical vertebra luxation, put into a beaker containing 75% ethanol and soaked for 2-3 minutes. The sterilized mice were placed into an ultraclean bench, and the abdomens were exposed. The ascites was drawn with a sterile syringe and put into a sterile reagent bottle for further use. The above ascites was counted with trypan blue, diluted with normal saline to adjust to 2.0×10^7 cells/ml, and inoculated at the right armpit of the mice with 0.2 ml for each mouse. The inoculated mice were randomly divided into 6 groups, with 10 animals in each group and half male and half female. Group 1, the model control group: the test animals were intraperitoneally injected with0.9% normal saline (same for the following experiments); Group 2, the docetaxel group: 75 mg/m^2/d of docetaxel; Group 3, the Tegafur, Gimeracil and Oteracil Potassium Capsules group: 222.2 mg/m^2/d of Tegafur, Gimeracil and Oteracil Potassium Capsules; Group 4, the icaritin group: 10 mg/kg/d of the icaritin microemulsion formulation; Group 5, the D+I group (docetaxel+icaritin group): 75 mg/m^2/d of docetaxel+[…] of icaritin; Group 6, the T +I group (Tegafur, Gimeracil and Oteracil Potassium Capsules+icaritin group): 222.2 mg/m^2/d of Tegafur, Gimeracil and Oteracil Potassium Capsules+10 mg/kg/d of icaritin. Docetaxel and icaritin were administered by tail intravenous injection with an administration volume of 10 ml/kg for each. Tegafur, Gimeracil and Oteracil Potassium Capsules was intragastrically administered with an administration volume of 40 ml/kg. Each group was administered once a day for totally 10 days. During the test, the animals were observed every day for their food and water uptake, survival conditions and behaviors, and measured for their body weights every day. After the test was ended, the mice were anaesthetized and anatomized. Blood was collected from abdominal aorta for routine blood test, and the total number of white blood cells, the total number of platelets and the total number of neutrophils were determined.

[4] = tested on: normal mice; experiment: Bleeding time in normal mice (tail tip cut); format: in vivo, Kunming mice; parameters: unit not given here; details: 3 days, 1 h after last administration
Method: 100 Kunming mice were randomly divided into 5 groups, i.e. the blank control group (normal saline group), the icariin group (positive control group), the high-dose icaritin group, the medium-dose icaritin group, and the low-dose icaritin group. Each group was administered as follows. Blank control group: administered with the same volume of normal saline by subcutaneous injection; Icariin group: administered with 2 mg/kg of icariin by injection; High-dose icaritin group: administered with the injection of icaritin of Example 1 by subcutaneous injection at a dosage of 10 mg/kg; Medium-dose icaritin group: administered with the injection of icaritin of Example 1 by subcutaneous injection at a dosage of 5 mg/kg; Low-dose icaritin group: administered with the injection of icaritin of Example 1 by subcutaneous injection at a dosage of 1 mg/kg. Measurement of the bleeding time: The normal saline group (blank control group), the icariin group (positive control group), and the icaritin administration groups (high-, medium-, and low-dose groups) were designed as follows: 50 mice were selected, weighed, and randomly divided into 5 groups, with 10 mice in each group. The animals were administered consecutively for 3 days. At 1 h after the last administration, a filter paper was rolled to form a filter paper cartridge with a diameter similar to that of the mouse body, which was closed at one end. The mouse was allowed to climb into the cartridge. Then about 3 mm of tail tip of the mouse was cut with scissors. A stopwatch was started to record the time when the bleeding started. The tail tip of the mouse was point-contacted with a filter paper gently every 15 s until there was no blood or no blood can be seen.

COc1ccc(-c2oc3c(CC=C(C)C)c(O)cc(O)c3c(=O)c2O)cc1 [Icaritin]
partial thromboplastin time (APTT) [1]: significantly shorten | prothrombin time (PT) [1]: significantly shorten | thrombin time (TT) [1]: significantly shorten | Body weight Before Administration [2]: 21.1 ± 3.0 g | Neutrophils [3]: 1.316 ± 0.15^#**^$$ 10^9/L | Platelets [3]: 687.4 ± 37.2^## 10^9/L | White blood cells [3]: 3.530 ± 0.31^##**^$$ 10^9/L | Bleeding Time ([4]; high dose 10 mg/kg sc): 1.86 ± 0.24**^ΔΔ | Bleeding Time ([4]; low dose 1 mg/kg sc): 3.75 ± 0.46 | Bleeding Time ([4]; medium dose 5 mg/kg sc): 2.51 ± 0.35**^Δ
